In publication PMC12027948, “Development of Peptidomimetic PROTACs as Potential Degraders of 3-Chymotrypsin-like Protease of SARS-CoV-2” (International Journal of Molecular Sciences, 2025):

Assays:
[1] = Cytotoxicity assay (Cell Counting Kit-8); conditions: human
SARS-CoV-2 3CL^pro = SARS-CoV-2 3CL^pro (Severe acute respiratory syndrome coronavirus 2, UniProt P0DTD1); assay: cell-based; conditions: HEK293 cells with stable 3CL^pro-flag expression, 72 h treatment, densitometry of Western blot; read-out: Dmax (maximum degradation in percentage)
HEK293 cells = assay: Cytotoxicity assay (Cell Counting Kit-8); conditions: read-out: CC50 (50% cytotoxicity concentration); HEK293, 72 h, CCK8
[2] = HEK293 cells, CC50 (50% cytotoxicity concentration), HEK293, 72 h, CCK8

Structure (SMILES) | CC50 at 3 days [1, 2] | Dmax (SARS-CoV-2 3CL^pro) | CC50 (HEK293 cells) | CC50 at 3 days [1]
CC(C)[C@H](NC(=O)[C@@H](NC(=O)OC(C)(C)C)C1CCCCC1)C(=O)OCCOCCNc1cccc2c1C(=O)N(C1CCC(=O)NC1=O)C2=O (some centres unmarked) [Compound 15] | 145 µM | 89.3% |  | 
CC(C)C[C@H](NC(=O)OC(C)(C)C)C(=O)N[C@@H](Cc1ccccc1)C(=O)OCCOCCOCCNc1cccc2c1C(=O)N(C1CCC(=O)NC1=O)C2=O (some centres unmarked) [Compound 16] | ~25 µM | 75% | 25.8 µM | 
CC(C)(C)OC(=O)N[C@H](C(=O)N[C@@H](Cc1ccccc1)C(=O)NCCCCNC(=O)CCC(=O)Nc1cccc2c1CN(C1CCC(=O)NC1=O)C2=O)C1CCCCC1 (some centres unmarked) [Compound 17] |  |  |  | 219 µM
CC(C)(C)OC(=O)N[C@H](C(=O)N[C@@H](Cc1ccccc1)C(=O)NCCCCCCNC(=O)CCC(=O)Nc1cccc2c1CN(C1CCC(=O)NC1=O)C2=O)C1CCCCC1 (some centres unmarked) [Compound 18] |  |  |  | 92.2 µM
CC(C)C[C@H](NC(=O)[C@H](Cc1ccccc1)NC(=O)OC(C)(C)C)C(=O)NCCCCCCNC(=O)CCC(=O)Nc1cccc2c1CN(C1CCC(=O)NC1=O)C2=O (some centres unmarked) [Compound 19] |  |  |  | 241 µM
